Columns and labels:
UGT1A9/2B7 = settings: 50 μM, 96 h treatment; 100 μM substrate, 30 min
UGT1A1/1A3 = settings: 50 μM, 96 h treatment; 100 μM substrate, 30 min
UGT = assay: Human hepatocyte UGT induction study, conversion of MPA to MPAG; format: cell-based; settings: 50 μM, 96 h treatment
Description: Cryopreserved human hepatocytes were recovered in a pre-warmed incubation medium, diluted to a viable cell density (∼0.7 × 10^6 cells/mL) using a plating medium, followed by the addition of 100 μL hepatocytes into each well of a collagen I-coated 96-well plate. The cell monolayer was formed after an overnight incubation period at 37°C under 5%CO2. The plating medium was then replaced with an incubation medium for further culture. On the second day, an incubation medium containing different concentrations of either compound, the inducer omeprazole (final concentration of 50 μM), or vehicle (0.1% [v/v] dimethyl sulfoxide [DMSO]). […] At the end of the incubation period, the medium was replaced with a substrate for UGT and MPA. Following a further incubation of 15 or 30 min at 37°C under 5% CO2, 100 μL of the reaction medium was transferred to 400 μL of ice-cold methanol containing internal standard (IS) to terminate the reaction. Finally, the supernatant was collected after centrifugation at 4,000 rpm for 10 min and analyzed for glucuronide formation using liquid chromatography-mass spectrometry (LC-MS).
The formation of glucuronide metabolites, as determined with LC-MS, was used to calculate the formation rate linked to enzyme activity according to Equation 1. Formation rate pmol/10^6 cells/min=amount of glucuronide metabolites formation pmol/number of cells 10^6 cells×incubation time min (1)
The percentage of enzyme activity relative to the NC (%) was determined using Equation 2. Relative enzyme activity % of NC=formation rate in the compound−treated group/that in NC×100 (2)

MRP2 = MRP2 (Homo sapiens, UniProt Q92887); assay: biochemical
Sequence of MRP2 (Q92887 whole entry): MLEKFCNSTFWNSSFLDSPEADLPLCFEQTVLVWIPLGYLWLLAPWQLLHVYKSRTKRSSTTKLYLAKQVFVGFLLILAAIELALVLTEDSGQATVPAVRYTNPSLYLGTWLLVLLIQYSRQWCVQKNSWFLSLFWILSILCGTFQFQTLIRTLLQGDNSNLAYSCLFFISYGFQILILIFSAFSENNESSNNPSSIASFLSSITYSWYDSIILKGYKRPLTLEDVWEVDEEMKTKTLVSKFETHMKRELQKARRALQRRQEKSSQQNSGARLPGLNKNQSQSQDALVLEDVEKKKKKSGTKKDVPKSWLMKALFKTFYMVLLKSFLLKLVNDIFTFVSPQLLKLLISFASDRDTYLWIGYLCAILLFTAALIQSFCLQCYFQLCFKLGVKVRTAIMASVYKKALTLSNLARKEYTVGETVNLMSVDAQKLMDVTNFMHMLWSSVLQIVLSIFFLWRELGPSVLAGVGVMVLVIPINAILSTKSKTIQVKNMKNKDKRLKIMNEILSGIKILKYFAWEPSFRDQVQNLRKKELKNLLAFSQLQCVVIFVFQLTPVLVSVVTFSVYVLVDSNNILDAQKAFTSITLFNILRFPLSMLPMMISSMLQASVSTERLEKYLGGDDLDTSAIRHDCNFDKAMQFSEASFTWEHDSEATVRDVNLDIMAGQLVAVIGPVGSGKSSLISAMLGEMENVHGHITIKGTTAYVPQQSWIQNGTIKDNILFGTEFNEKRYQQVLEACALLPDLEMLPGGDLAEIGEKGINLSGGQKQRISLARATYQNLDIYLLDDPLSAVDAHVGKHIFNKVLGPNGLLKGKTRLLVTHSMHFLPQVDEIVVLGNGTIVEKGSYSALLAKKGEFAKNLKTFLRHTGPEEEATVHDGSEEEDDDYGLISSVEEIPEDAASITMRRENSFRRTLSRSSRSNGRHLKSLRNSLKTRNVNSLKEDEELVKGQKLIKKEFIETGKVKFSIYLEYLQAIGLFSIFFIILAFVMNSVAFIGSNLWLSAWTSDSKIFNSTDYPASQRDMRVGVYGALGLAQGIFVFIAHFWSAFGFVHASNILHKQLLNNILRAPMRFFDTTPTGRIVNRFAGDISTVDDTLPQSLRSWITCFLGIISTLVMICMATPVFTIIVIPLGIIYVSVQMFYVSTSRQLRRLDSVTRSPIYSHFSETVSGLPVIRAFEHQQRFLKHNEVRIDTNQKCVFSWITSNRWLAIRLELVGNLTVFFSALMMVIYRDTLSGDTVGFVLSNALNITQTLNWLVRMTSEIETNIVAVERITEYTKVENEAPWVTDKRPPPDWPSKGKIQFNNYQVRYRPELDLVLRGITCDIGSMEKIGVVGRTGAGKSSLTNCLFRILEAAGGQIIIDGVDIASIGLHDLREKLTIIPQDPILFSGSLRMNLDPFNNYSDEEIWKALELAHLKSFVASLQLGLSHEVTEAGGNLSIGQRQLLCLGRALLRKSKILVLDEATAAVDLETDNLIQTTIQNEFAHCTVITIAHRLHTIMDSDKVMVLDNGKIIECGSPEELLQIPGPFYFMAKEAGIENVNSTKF

| IC50 (MRP2) [µM] | Compound | 4-trifluoromethyl-7-hydroxycoumarin glucuronidation activity, % of NC (Mean) (UGT1A9/2B7) | β-estradiol glucuronidation activity, % of NC (Mean) (UGT1A1/1A3) | formation of MPAG, % of NC (Mean) (UGT) |
| --- | --- | --- | --- | --- |
| – | COc1ccc2[nH]c([S+]([O-])Cc3ncc(C)c(OC)c3C)nc2c1 (stereo not shown) [omeprazole] | 145 % of NC | 243 % of NC | 110 % of NC |
| 17.6 | CCc1oc2ccccc2c1C(=O)c1cc(Br)c(O)c(Br)c1 [benzbromarone] | – | – | – |

From paper PMC11381307 (Frontiers in Pharmacology, 2024)
